# Source: ChEMBL document CHEMBL1149774, “Synthesis of N-(5,7-diamino-3-phenyl-quinoxalin-2-yl)-3,4,5-substituted anilines and N-[4[(5,7-diamino-3-phenylquinoxalin-2-yl)amino]benzoyl]-l-glutamic acid diethyl ester: evaluation of in vitro anti-cancer and anti-folate activities” (Eur J Med Chem, 2008)
# pKi: −log10 of the molar value. Calls of active or inactive are those of the source. The rule behind the calls is not given here.
# Columns and labels:
# NCI-H23 = test: Growth inhibition of human NCI-H23 cells after 48 hrs by SRB staining method; assay type: functional; conditions: NCI-H23, 48 h; for TGI: read-out: pTGI (converted)
# KM12 = test: Growth inhibition of human KM12 cells after 48 hrs by SRB staining method; assay type: functional; conditions: KM12, 48 h; for TGI: read-out: pTGI (converted)
# SF-539 = test: Growth inhibition of human SF539 cells after 48 hrs by SRB staining method; assay type: functional; conditions: SF-539, 48 h; for TGI: read-out: pTGI (converted)
# SNB-19 = test: Growth inhibition of human SNB19 cells after 48 hrs by SRB staining method; assay type: functional; conditions: SNB-19, 48 h; for TGI: read-out: pTGI (converted)
# LOX IMVI = test: Growth inhibition of human LOX IMVI cells after 48 hrs by SRB staining method; assay type: functional; conditions: for TGI: read-out: pTGI (converted)
# SK-MEL-2 = test: Growth inhibition of human SK-MEL-2 cells after 48 hrs by SRB staining method; assay type: functional; conditions: SK-MEL-2, 48 h; for TGI: read-out: pTGI (converted)
# UACC-62 = test: Growth inhibition of human UACC62 cells after 48 hrs by SRB staining method; assay type: functional; conditions: UACC-62, 48 h; for TGI: read-out: pTGI (converted)
# IGROV-1 = test: Growth inhibition of human IGROV1 cells after 48 hrs by SRB staining method; assay type: functional; conditions: IGROV-1, 48 h; for TGI: read-out: pTGI (converted)
# OVCAR-8 = test: Growth inhibition of human OVCAR8 cells after 48 hrs by SRB staining method; assay type: functional; conditions: OVCAR-8, 48 h; for CC50: read-out: pLC50 (the source's name) (converted); for TGI: read-out: pTGI (converted)
# SN12C = test: Growth inhibition of human SN12C cells after 48 hrs by SRB staining method; assay type: functional
# PC-3 = test: Growth inhibition of human PC3 cells after 48 hrs by SRB staining method; assay type: functional; conditions: PC-3, 48 h; for CC50: read-out: pLC50 (the source's name) (converted); for TGI: read-out: pTGI (converted)
# NCI/ADR-RES = test: Growth inhibition of human NCI/ADR-RES cells after 48 hrs by SRB staining method; assay type: functional; conditions: for CC50: read-out: pLC50 (the source's name) (converted); for TGI: read-out: pTGI (converted)
# MDA-MB-231 = test: Growth inhibition of human MDA-MB-231 cells after 48 hrs by SRB staining method; assay type: functional; conditions: MDA-MB-231, 48 h; for CC50: read-out: pLC50 (the source's name) (converted); for TGI: read-out: pTGI (converted)
# [1] = Growth inhibition of human HS 578T cells after 48 hrs by SRB staining method; assay type: functional; conditions: for CC50: read-out: pLC50 (the source's name) (converted); for TGI: read-out: pTGI (converted)
# [2] = target: T1, Dihydrofolate reductase (Homo sapiens) (UniProt P00374); test: Inhibition of human dihydrofolate reductase at 10 uM
# T1 sequence (whole entry): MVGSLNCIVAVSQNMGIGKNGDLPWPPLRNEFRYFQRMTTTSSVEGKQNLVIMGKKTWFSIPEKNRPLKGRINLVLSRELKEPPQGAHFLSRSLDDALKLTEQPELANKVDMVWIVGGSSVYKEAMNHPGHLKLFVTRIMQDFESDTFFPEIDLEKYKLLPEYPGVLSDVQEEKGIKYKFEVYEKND
# A549 = test: Growth inhibition of human A549 cells after 48 hrs by SRB staining method; assay type: functional; conditions: A549, 48 h; for CC50: read-out: pLC50 (the source's name) (converted); for TGI: read-out: pTGI (converted)
# SF-268 = test: Growth inhibition of human SF268 cells after 48 hrs by SRB staining method; assay type: functional; conditions: SF-268, 48 h; for CC50: read-out: pLC50 (the source's name) (converted); for TGI: read-out: pTGI (converted)
# CCRF-CEM = test: Growth inhibition of human CCRF-CEM cells after 48 hrs by SRB staining method; assay type: functional; conditions: for CC50: read-out: pLC50 (the source's name) (converted)
# K562 = test: Growth inhibition of human K562 cells after 48 hrs by SRB staining method; assay type: functional; conditions: K562, 48 h
# RPMI-8226 = test: Growth inhibition of human RPMI8226 cells after 48 hrs by SRB staining method; assay type: functional; conditions: RPMI-8226, 48 h; for CC50: read-out: pLC50 (the source's name) (converted); for TGI: read-out: pTGI (converted)
# MOLT-4 = test: Growth inhibition of human MOLT4 cells after 48 hrs by SRB staining method; assay type: functional; conditions: MOLT-4, 48 h; for CC50: read-out: pLC50 (the source's name) (converted); for TGI: read-out: pTGI (converted)
# Thymidylate synthase = target: T2, Thymidylate synthase (Lactobacillus casei, UniProt P00469)
# T2 sequence (P00469 whole entry): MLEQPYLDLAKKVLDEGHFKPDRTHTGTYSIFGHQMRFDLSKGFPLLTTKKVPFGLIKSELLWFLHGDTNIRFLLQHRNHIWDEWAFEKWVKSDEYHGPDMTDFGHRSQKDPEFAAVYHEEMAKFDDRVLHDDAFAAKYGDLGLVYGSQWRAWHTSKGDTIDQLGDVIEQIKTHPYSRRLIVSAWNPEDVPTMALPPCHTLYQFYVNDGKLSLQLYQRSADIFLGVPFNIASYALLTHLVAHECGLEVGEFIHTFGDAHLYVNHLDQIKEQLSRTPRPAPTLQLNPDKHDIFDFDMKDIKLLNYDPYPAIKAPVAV
# Description: Inhibition of Lactobacillus casei thymidylate synthase
# HOP-92 = test: Growth inhibition of human HOP92 cells after 48 hrs by SRB staining method; assay type: functional; conditions: HOP-92, 48 h
# ACHN = test: Growth inhibition of human ACHN cells after 48 hrs by SRB staining method; assay type: functional
# BT-549 = test: Growth inhibition of human BT549 cells after 48 hrs by SRB staining method; assay type: functional; conditions: BT-549, 48 h
# [3] = read-out: pLC50 (the source's name) (converted)
compound,measurement,setting,value
Nc1cc(N)c2nc(-c3ccccc3)c(Nc3ccc(Cl)c(Cl)c3)nc2c1,GI50,NCI-H23,19.1 µM
same,LC50,NCI-H23,> 100 µM
same,TGI,NCI-H23,55 µM
same,GI50,KM12,5.89 µM
same,LC50,KM12,87.1 µM
same,TGI,KM12,24.5 µM
same,GI50,SF-539,17 µM
same,LC50,SF-539,72.4 µM
same,TGI,SF-539,35.5 µM
same,GI50,SNB-19,12.9 µM
same,LC50,SNB-19,70.8 µM
same,TGI,SNB-19,30.2 µM
same,GI50,LOX IMVI,4.37 µM
same,LC50,LOX IMVI,> 100 µM
same,TGI,LOX IMVI,> 100 µM
same,GI50,SK-MEL-2,2.34 µM
same,LC50,SK-MEL-2,69.2 µM
same,TGI,SK-MEL-2,19.1 µM
same,GI50,UACC-62,13.2 µM
same,LC50,UACC-62,67.6 µM
same,TGI,UACC-62,30.2 µM
same,GI50,IGROV-1,4.9 µM
same,LC50,IGROV-1,66.1 µM
same,TGI,IGROV-1,20.9 µM
same,GI50,OVCAR-8,5.13 µM
same,CC50,OVCAR-8,> 100 µM
same,TGI,OVCAR-8,79.4 µM
same,GI50,SN12C,12.6 µM
same,CC50,SN12C; [3],79.4 µM
same,TGI,SN12C; read-out: pTGI (converted),31.6 µM
same,GI50,PC-3,3.09 µM
same,CC50,PC-3,89.1 µM
same,TGI,PC-3,15.1 µM
same,GI50,NCI/ADR-RES,15.5 µM
same,CC50,NCI/ADR-RES,> 100 µM
same,TGI,NCI/ADR-RES,55 µM
same,GI50,MDA-MB-231,5.75 µM
same,CC50,MDA-MB-231,> 100 µM
same,TGI,MDA-MB-231,27.5 µM
same,GI50,[1],19.1 µM
same,CC50,[1],> 100 µM
same,TGI,[1],51.3 µM
same,Activity,[2],inactive
same,GI50,A549,10.7 µM
same,CC50,A549,> 100 µM
same,TGI,A549,34.7 µM
same,GI50,SF-268,12 µM
same,CC50,SF-268,67.6 µM
same,TGI,SF-268,28.8 µM
same,GI50,CCRF-CEM,1.29 µM
same,CC50,CCRF-CEM,> 100 µM
same,GI50,K562,3.55 µM
same,CC50,K562; [3],> 100 µM
same,TGI,K562; read-out: pTGI (converted),> 100 µM
same,GI50,RPMI-8226,2 µM
same,CC50,RPMI-8226,> 100 µM
same,TGI,RPMI-8226,4.9 µM
same,GI50,MOLT-4,4.07 µM
same,CC50,MOLT-4,> 100 µM
same,TGI,MOLT-4,> 100 µM
same,pKi,Thymidylate synthase,6.00
CCOC(=O)CCC(NC(=O)c1ccc(Nc2nc3cc(N)cc(N)c3nc2-c2ccccc2)cc1)C(=O)OCC (stereo unspecified),GI50,HOP-92,10.7 µM
same,LC50,HOP-92,81.3 µM
same,TGI,HOP-92; read-out: pTGI (converted),29.5 µM
same,GI50,NCI-H23,18.6 µM
same,LC50,NCI-H23,> 100 µM
same,TGI,NCI-H23,55 µM
same,GI50,KM12,28.2 µM
same,LC50,KM12,> 100 µM
same,TGI,KM12,> 100 µM
same,GI50,SF-539,27.5 µM
same,LC50,SF-539,> 100 µM
same,TGI,SF-539,> 100 µM
same,GI50,SNB-19,21.4 µM
same,LC50,SNB-19,> 100 µM
same,TGI,SNB-19,> 100 µM
same,GI50,LOX IMVI,8.51 µM
same,LC50,LOX IMVI,> 100 µM
same,TGI,LOX IMVI,> 100 µM
same,GI50,SK-MEL-2,7.76 µM
same,LC50,SK-MEL-2,> 100 µM
same,TGI,SK-MEL-2,74.1 µM
same,GI50,UACC-62,3.55 µM
same,LC50,UACC-62,64.6 µM
same,TGI,UACC-62,14.5 µM
same,GI50,IGROV-1,6.31 µM
same,LC50,IGROV-1,> 100 µM
same,TGI,IGROV-1,89.1 µM
same,GI50,OVCAR-8,33.9 µM
same,CC50,OVCAR-8,> 100 µM
same,TGI,OVCAR-8,> 100 µM
same,GI50,ACHN,12.9 µM
same,CC50,ACHN; [3],> 100 µM
same,TGI,ACHN; read-out: pTGI (converted),46.8 µM
same,GI50,PC-3,21.4 µM
same,CC50,PC-3,> 100 µM
same,TGI,PC-3,91.2 µM
same,GI50,NCI/ADR-RES,19.5 µM
same,CC50,NCI/ADR-RES,> 100 µM
same,TGI,NCI/ADR-RES,63.1 µM
same,GI50,MDA-MB-231,8.91 µM
same,CC50,MDA-MB-231,81.3 µM
same,TGI,MDA-MB-231,28.2 µM
same,GI50,[1],33.9 µM
same,CC50,[1],> 100 µM
same,TGI,[1],75.9 µM
same,GI50,BT-549,41.7 µM
same,CC50,BT-549; [3],> 100 µM
same,TGI,BT-549; read-out: pTGI (converted),> 100 µM
same,Activity,[2],inactive
same,GI50,A549,20 µM
same,CC50,A549,> 100 µM
same,TGI,A549,> 100 µM
same,GI50,SF-268,23.4 µM
same,CC50,SF-268,> 100 µM
same,TGI,SF-268,> 100 µM
same,GI50,CCRF-CEM,2.95 µM
same,CC50,CCRF-CEM,> 100 µM
same,TGI,CCRF-CEM; read-out: pTGI (converted),> 100 µM
same,GI50,RPMI-8226,3.16 µM
same,CC50,RPMI-8226,> 100 µM
same,TGI,RPMI-8226,> 100 µM
same,GI50,MOLT-4,2.4 µM
same,CC50,MOLT-4,> 100 µM
same,TGI,MOLT-4,7.41 µM
same,pKi,Thymidylate synthase,4.57
